According to patent publication EP1406920B1, “NOVEL CHROMOGENIC SUBSTANCES AND USE THEREOF FOR THE DETERMINATION OF CARBOXYPEPTIDASE ACTIVITIES” (Diagnostica Stago, priority 2001, dated 2003):

Tests used:
Type in all cases: biochemical
[1] = system: carboxypeptidase B pancréatique porcine; assay: Decoloration of single-amino-acid substrate AAFR by pancreatic carboxypeptidase B; settings: CPB porcine 5,2 mol/l in hépès buffer; AAFR 5 mM (0,25 mM); 382 nm
Description: (§1) L'exemple ci-après vise à démontrer la nécessité d'utiliser la méthode et les composés de formule (I) de l'invention pour doser spécifiquement l'activité des CPN ou U, en particulier le TAFI, par rapport à d'autres carboxypeptidases basiques. 1. Le dosage est dans ce cas réalisé avec un substrat de la famille de composés décrites par Mock dans (14). Ce substrat est constitué d'un seul acide aminé porteur du radical chromophore anizylazoformyl (portion CH3OC6H4-N = N-CO-). L'acide aminé choisi est l'arginine, un acide aminé basique normalement hydrolysé par les carboxypeptidases B (1). Ce substrat est dénommé ci-après AAFR (AnizylAzoFormyArginine) ou MxAFR (4-MethoxyphenylAzoformylarginine). Ce substrat (0,25 mM) est mis en présence soit d'un échantillon de TAFI plasmatique, soit d'une solution de carboxypeptidase B pancréatique porcine (Sigma - Réf. C9584) à 5,2 mol/l. La diminution de coloration de chacun des deux échantillons est suivie au spectrophotomètre. Chacun des échantillons est traité selon le protocole suivant : • a) échantillon de départ : • TAFI plasmatique (présent dans un pool normal de plasmas - dilué au 1/20) ou • Carboxypeptidase B pancréatique porcine 5,2 mol/l (dans tampon hépès) • b) activation avec complexe thrombine-thrombomoduline-CaCl2 (voir exemple 2) pour l'échantillon de TAFI plasmatique. • c) addition de AAFR à 5 mM. • d) lecture DO à 382 nm.

[2] = target: T1, TAFI plasmatique (Homo sapiens, UniProt Q96IY4); assay: Decoloration of single-amino-acid substrate AAFR by activated plasma TAFI
T1 construct: from tissue; host or cells: normal plasma pool, diluted 1/20
T1 sequence (Q96IY4 115-423): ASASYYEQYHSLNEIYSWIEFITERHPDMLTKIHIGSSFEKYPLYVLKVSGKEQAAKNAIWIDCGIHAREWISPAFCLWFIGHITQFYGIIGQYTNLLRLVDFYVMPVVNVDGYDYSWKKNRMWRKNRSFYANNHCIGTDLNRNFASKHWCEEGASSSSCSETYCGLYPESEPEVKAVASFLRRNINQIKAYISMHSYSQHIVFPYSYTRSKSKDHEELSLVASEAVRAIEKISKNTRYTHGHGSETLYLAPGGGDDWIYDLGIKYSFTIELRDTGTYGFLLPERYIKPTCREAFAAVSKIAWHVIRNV
Description: as §1

[3] = target: T2, TAFI purifié (Homo sapiens, UniProt Q96IY4); assay: Specificity test on purified TAFI solution: MxAFR versus MxPAFFK; settings: for DO de départ / DO finale / Delta DO: TAFI purifié 18 µg/ml, activated, MxAFR 27 mM without CPA, MxPAFFK with CPA added, 382 nm; for hydrolyse par le TAFI activé: conclusion in words, purified TAFI 18 µg/ml
T2 sequence (Q96IY4 115-423): T1 sequence (Q96IY4 115-423)
Description: 2. La méthode de l'invention est ensuite appliquée sur une solution de TAFI purifiée, soit avec un substrat de formule (I) (MxPAFFK), soit avec le MxAFR pour vérifier que le TAFIa hydrolyse néanmoins un composé de formule (I). L'activation de la coagulation est déclenchée par le complexe thrombine-thrombomoduline-CaCl2 (voir protocole exemple 2). La diminution de coloration de chacun des deux échantillons est suivie au spectrophotomètre. • a) échantillons de départ : solution de TAFI purifié à18 µg/ml (dilué dans tampon hépès). • b) activation de la coagulation. • c) addition de MxAFR 27 mM ou MxPAFFK (témoin) concentration du MxAFFK. • d) addition de CPA dans l'échantillon contenant le MxPAFFK. • e) lecture DO à 382 nm.

[4] = target: T2, TAFI purifié; assay: Colorimetric TAFI activity assay on purified TAFI with different substrates (thrombin/thrombomodulin activation, carboxypeptidase A revelation); settings: substrate 5 mM; 6,5 µg/ml TAFI purifié in hépès buffer; read at 320-350 nm
[5] = target: T2, TAFI purifié; assay: Calibration range, thrombin/thrombomodulin method, TAFI-deficient plasma spiked with purified TAFI; settings: substrate 5 mM
Experimental: L'échantillon de plasma testé est divisé en deux aliquotes, l'un étant additionné de PIC (Calbiochem - Réf. 217359), l'autre de tampon hépès. Les deux aliquotes sont ensuite traités de manière identique selon le principe suivant :
• 150 µl de plasma dilué au 1/20 en tampon hépès (ou TAFI purifié à 13 µg/ml en tampon hépès. • 10 µl PIC ou H2O • 5 minutes à température ambiante • 150 µl tampon activateur de la coagulation • 10 minutes à température ambiante • 100 µl PPACK + 100 µl MxPAFFR (substrat) (5 mM)
• 30 minutes à température ambiante • 100 µl HCl 1M + 100 µl NaOH 1M
• Dilution au 1/3 en tampon hépès • Lecture de la DO à 382 nm • 25 µl Carboxypeptidase A • Lecture de la DO à 382 nm sur 1 minute
La figure 3 ci-après représente une courbe d'étalonnage établie à partir d'un plasma déficient en TAFI surchargé avec du TAFI purifié pour obtenir une gamme de concentration en TAFI allant de 0 à 26 µg/ml. Le composé de formule I utilisé est le MxPAAFR à une concentration de 5 mM. Les Δ DO mesurés selon la méthode de l'invention sont reportés dans le tableau III suivant : TABLEAU III : […]

[6] = TAFIa du plasma (normal plasma pool diluted 1/20, thrombine-thrombomoduline-CaCl2 activation), AAFR 5 mM (0,25 mM), 382 nm

Row | DO de départ [3] | DO finale [3] | Delta DO [3] | hydrolyse par le TAFI activé [3] | DO de départ [4] | DO finale [4] | Delta DO [4] | further results | Compound
1 | 1.356 | 1.300 | 0.056 | n'hydrolyse pas | – | – | – | Delta DO [1]: 0.608; DO de départ [2, 6]: 1.730; DO finale [2, 6]: 1.681; Delta DO [2, 6]: 0.049; hydrolyse par le TAFI activé ([2]; conclusion in words, plasma TAFIa): n'hydrolyse pas | COc1ccc(N=NC(=O)N[C@@H](CCCNC(=N)N)C(=O)O)cc1 [AAFR, 4-MethoxyphenylAzoformylarginine]
2 | 1.397 | 0.849 | 0.548 | actif | 0.973 | 0.131 | 0.842 | – | COc1ccc(N=NC(=O)N[C@@H](Cc2ccccc2)C(=O)N[C@@H](CCCCN)C(=O)O)cc1 [MxPAFFK, 4-methoxyphenylazoformylphenylalanyllysine]
3 | – | – | – | – | 0.973 | 0.131 | 0.842 | – | Cc1ccc(C)c(N=NC(=O)N[C@@H](Cc2ccccc2)C(=O)N[C@@H](CCCNC(=N)N)C(=O)O)c1 [2,5 DMPAFFR, 2,5-dimethylphenylazoformylphenylalanylarginine]
4 | – | – | – | – | 1.004 | 0.087 | 0.917 | – | Cc1ccc(N=NC(=O)N[C@@H](Cc2ccccc2)C(=O)N[C@@H](CCCNC(=N)N)C(=O)O)c(C)c1 [2,4 DMPAFFR, 2,4-dimethylphenylazoformylphenylalanylarginine]
5 | – | – | – | – | 0.318 | 0.089 | 0.229 | – | Cc1cccc(N=NC(=O)N[C@@H](Cc2ccccc2)C(=O)N[C@@H](CCCNC(=N)N)C(=O)O)c1C [2,3 DMPAFFR, 2,3-dimethylphenylazoformylphenylalanylarginine]
6 | – | – | – | – | – | – | – | Δ DO mesuré ([5]; concentration en TAFIa 0 µg/ml): 0.168; Δ DO mesuré ([5]; concentration en TAFIa 1.63 µg/ml): 0.217; Δ DO mesuré ([5]; concentration en TAFIa 3.25 µg/ml): 0.273; Δ DO mesuré ([5]; concentration en TAFIa 6.5 µg/ml): 0.399; Δ DO mesuré ([5]; concentration en TAFIa 13 µg/ml): 0.624; Δ DO mesuré ([5]; concentration en TAFIa 26 µg/ml): 0.995 | COc1ccc(N=NC(=O)N[C@@H](Cc2ccccc2)C(=O)N[C@@H](CCCNC(=N)N)C(=O)O)cc1 [MxPAAFR, 4-methoxyphenylazoformylphenylalanylarginine]
